Measured values as given in patent US11299485B2, “Thiophene derivative and use thereof” (FUJIMOTO CO., LTD., priority 2018, dated 2022).

Columns and labels:
Type in all cases: cell-based
REC-1 cells = assay: Human mantle cell lymphoma cell line REC-1 proliferation suppression test; settings: Rec1, 72 h, compound 10 μM, 3 days, WST-8, read-out: cell survival rate (% of control) REC-1
Procedure: Example 53: Human Mantle Cell Lymphoma Cell Line REC-1 Proliferation Suppression Test
REC-1 cells (ATCC, CRL-3004) were suspended in medium B, and diluted as appropriate with 0.4% trypan blue solution (Sigma-Aldrich Co. LLC.). The number of viable cells was counted with a hemocytometer (Funakoshi Co., Ltd.). A cell suspension obtained by diluting with medium B such that the value obtained was 1.3×10^5 cells/mL was dispensed into a Falcon 96 well flat bottom plate (Corning Incorporated) at 75 μL/well, and culture was started at 37° C. under 5% CO2 stream. The next day, a solution obtained by diluting 4 mM DMSO solution of the test compound 100-fold with medium B was added by 25 μL to each well (final concentration of test compound 10 μM). 25 μL of a solution obtained by diluting DMSO 100-fold with medium B was added to the control well. After culturing at 37° C. in a 5% CO2 stream for 3 days, the cell proliferation activity was measured according to the instruction manual attached to WST-8 Kit (KISHIDA CHEMICAL Co., Ltd.).

[1] = test system: human peripheral blood mononuclear cells (PBMC); assay: Cytotoxicity test using human peripheral blood mononuclear cells (PBMC); settings: compound 10 μg/mL, LPS, 24 hr, WST-1 or WST-8
Procedure: Example 56: Cytotoxicity Test Using Human Peripheral Blood Mononuclear Cells (PBMC)
Peripheral blood of a healthy adult was collected in a Venoject II vacuum blood collection tube (Terumo, containing EDTA/2Na), and then diluted two-fold with an equal volume of OTSUKA NORMAL SALINE (Otsuka Pharmaceutical Co., Ltd.). The diluted blood was mixed with Lymphoprep (AXIS-SHIELD) in half the volume of the diluted blood, dispensed into a 15 mL conical tube, and centrifuged at room temperature for 20 min (2,100 rpm). The mononuclear cells accumulated at the interface between Lymphoprep and plasma was transferred to a 50 mL conical tube, diluted with OTSUKA NORMAL SALINE, and the mononuclear cells suspension was centrifuged at room temperature for 10 min (1,150 rpm) and then the supernatant was removed. The mononuclear cells fraction obtained as a precipitate was suspended in an appropriate amount of medium A, and diluted as appropriate with 0.4% trypan blue solution (Sigma-Aldrich Co. LLC.). The number of viable cells was counted with a hemocytometer (ERMA INC.). It was diluted with medium A such that the value obtained was 5×10^5 cells/mL. On the other hand, 37.5 μL of medium A, 2.5 μL of 0.4 mg/mL test compound solution (DMSO solution 10-fold diluted with medium A), and 10 μL of 10 μg/mL lipopolysaccharide (Sigma-Aldrich Co. LLC.) solution (diluted with medium A) were each added in advance to the same well of a Falcon 96-well flat bottom plate (Corning Incorporated), and the above-mentioned cell suspension was dispensed at 50 μL/well (final concentration of test compound 10 μg/mL). 2.5 μL of DMSO diluted 10-fold with medium A was added to the control well instead of the compound solution. After culturing at 37° C. in a 5% CO2 stream for 24 hr, the cell survival rate was measured using WST-1 (DOJINDO LABORATORIES) or WST-8 kit (KISHIDA CHEMICAL Co., Ltd.) and according to each instruction manual attached thereto.

TNF-α production = assay: Human TNF-α production suppression test (LPS-stimulated peripheral blood mononuclear cells, ELISA); settings: PBMC, compound 10 μg/mL, 24 hr, control well = 100, read-out: TNF-α production suppressive rate (%)
Procedure: Example 50: Human TNF-α Production Suppression Test
Peripheral blood of a healthy adult was collected in a vacuum blood collection tube (Terumo, containing EDTA/2Na), and then diluted two-fold with an equal volume of OTSUKA NORMAL SALINE (Otsuka Pharmaceutical Co., Ltd.). The diluted blood was mixed with Lymphoprep (AXIS-SHIELD) in half the volume of the diluted blood, dispensed into a 15 mL conical tube, and centrifuged at room temperature for 20 min (2,100 rpm). The mononuclear cells accumulated at the interface between Lymphoprep and plasma was transferred to a 50 mL conical tube, diluted with OTSUKA NORMAL SALINE, and the mononuclear cells suspension was centrifuged at room temperature for 10 min (1,150 rpm) and then the supernatant was removed. The mononuclear cells fraction obtained as a precipitate was suspended in an appropriate amount of 10% fetal calf serum (Thermo Fisher Scientific)-containing RPMI1640 medium (Thermo Fisher Scientific, hereinafter abbreviated as medium A), and diluted as appropriate with 0.4% trypan blue solution (Sigma-Aldrich Co. LLC.). The number of viable cells was counted with a hemocytometer (ERMA INC.). It was diluted with medium A such that the value obtained was 5×10^5 cells/mL. On the other hand, 75 μL of medium A, 5 μL of 0.4 mg/mL test compound solution (DMSO solution 10-fold diluted with medium A), and 20 μL of 10 μg/mL lipopolysaccharide (Sigma-Aldrich Co. LLC.) solution (diluted with medium A) were each added in advance to the same well of a Falcon 96-well flat bottom plate (Corning Incorporated), and the above-mentioned cell suspension was dispensed at 0.1 mL/well. 5 μL of DMSO diluted 10-fold with medium A was added to the control well instead of the compound solution. After culturing at 37° C. in a 5% CO2 stream for 24 hr, the culture solution was centrifuged at 4° C., 1,000 rpm for 3 min and the supernatant was recovered. The content of TNF-α in the supernatant was measured using an ELISA kit (Peprotech) according to a conventional method. The amount of TNF-α produced in the well containing the test compound was determined with the amount of TNF-α produced in the control well as 100, and the suppression rate was calculated for each test.

MM.1S cells = assay: Human myeloma cell line MM.1S proliferation suppression test; settings: MM1.S, 72 h, compound 10 μM, 3 days, WST-1 or WST-8, read-out: cell survival rate (% of control) MM.1S
Procedure: Example 51: Human Myeloma Cell Line MM.1S Proliferation Suppression Test
MM.1S cells (ATCC, CRL-2974) were suspended in 10% fetal calf serum (Thermo Fisher Scientific)-containing RPMI1640 medium (ATCC, hereinafter abbreviated as medium B), and diluted as appropriate with 0.4% trypan blue solution (Sigma-Aldrich Co. LLC.). The number of viable cells was counted with a hemocytometer (ERMA INC.). It was diluted with medium B such that the value obtained was 2×10^5 cells/mL. On the other hand, 50 μL of a solution obtained by diluting 4 mM DMSO solution of the test compound 200-fold with medium B was added to each well of a Falcon 96-well flat bottom plate (Corning Incorporated), and the above-mentioned cell suspension was dispensed at 50 μL/well (final concentration of test compound 10 μM). 50 μL of a solution obtained by diluting DMSO 200-fold with medium B was added to the control well. After culturing at 37° C. in a 5% CO2 stream for 3 days, the cell proliferation activity was measured using WST-1 (DOJINDO LABORATORIES) or WST-8 Kit (KISHIDA CHEMICAL Co., Ltd.) and according to each instruction manual attached thereto.

| Compound | viability at 10 µM (REC-1 cells) [%] | cell survival rate (% of control) PBMC [1] | inhibition at 10 µg/mL (TNF-α production) [%] | viability at 10 µM (MM.1S cells) [%] |
| --- | --- | --- | --- | --- |
| O=C1CCC(n2cc(-c3cscc3Br)nn2)C(=O)N1 (stereo not shown) [compound 1, 3-[4-(4-bromothiophen-3-yl)-1H-1,2,3-triazol-1-yl]piperidine-2,6-dione] | 43 | 106 % of control | 90 | 33 |
| O=C1CCC(n2cc(-c3ccsc3)nn2)C(=O)N1 (stereo not shown) [compound 2, 3-[4-(thiophen-3-yl)-1H-1,2,3-triazol-1-yl]piperidine-2,6-dione] | 36 | 100 % of control | 98 | 50 |
| O=C1CCC(n2cc(-c3cccs3)nn2)C(=O)N1 (stereo not shown) [compound 3, 3-[4-(thiophen-2-yl)-1H-1,2,3-triazol-1-yl]piperidine-2,6-dione] | 65 | 89 % of control | 59 | 59 |
| O=C1CCC(n2nnc(-c3ccsc3)c2Cl)C(=O)N1 (stereo not shown) [compound 4, 3-[5-chloro-4-(thiophen-3-yl)-1H-1,2,3-triazol-1-yl]piperidine-2,6-dione] | 93 | 112 % of control | 67 | 87 |
| Cc1ccc(-c2cn(C3CCC(=O)NC3=O)nn2)s1 (stereo not shown) [compound 5, 3-[4-(5-methylthiophen-2-yl)-1H-1,2,3-triazol-1-yl]piperidine-2,6-dione] | 53 | 97 % of control | 71 | 66 |
| Cc1cc(-c2cn(C3CCC(=O)NC3=O)nn2)cs1 (stereo not shown) [compound 6, 3-[4-(5-methylthiophen-3-yl)-1H-1,2,3-triazol-1-yl]piperidine-2,6-dione] | 52 | 96 % of control | 67 | 63 |
| Cc1cscc1-c1cn(C2CCC(=O)NC2=O)nn1 (stereo not shown) [compound 7, 3-[4-(4-methylthiophen-3-yl)-1H-1,2,3-triazol-1-yl]piperidine-2,6-dione] | 44 | 101 % of control | 73 | 57 |
| CC(=O)c1ccc(-c2cn(C3CCC(=O)NC3=O)nn2)s1 (stereo not shown) [compound 8, 3-[4-(5-acetylthiophen-2-yl)-1H-1,2,3-triazol-1-yl]piperidine-2,6-dione] | 99 | 97 % of control | 64 | 94 |
| O=C1CCC(n2cc(-c3csc(CO)c3)nn2)C(=O)N1 (stereo not shown) [compound 9, 3-{4-[5-(hydroxymethyl)thiophen-3-yl]-1H-1,2,3-triazol-1-yl}piperidine-2,6-dione] | 70 | 129 % of control | 41 | 77 |
| O=C1CCC(n2cc(-c3scc4c3OCCO4)nn2)C(=O)N1 (stereo not shown) [compound 10, 3-[4-(2,3-dihydrothieno[3,4-b][1,4]dioxin-5-yl)-1H-1,2,3-triazol-1-yl]piperidine-2,6-dione] | 57 | 97 % of control | 50 | 78 |
| O=C1CCC(n2cc(-c3ccc(Cl)s3)nn2)C(=O)N1 (stereo not shown) [compound 11, 3-[4-(5-chlorothiophen-2-yl)-1H-1,2,3-triazol-1-yl]piperidine-2,6-dione] | 56 | 115 % of control | 81 | 63 |
| O=C1CCC(n2cc(-c3ccc(Br)s3)nn2)C(=O)N1 (stereo not shown) [compound 12, 3-[4-(5-bromothiophen-2-yl)-1H-1,2,3-triazol-1-yl]piperidine-2,6-dione] | 77 | 101 % of control | 84 | 74 |
| O=C1CCC(n2cc(-c3cc(Br)sc3Br)nn2)C(=O)N1 (stereo not shown) [compound 13, 3-[4-(2,5-dibromothiophen-3-yl)-1H-1,2,3-triazol-1-yl]piperidine-2,6-dione] | 100 | 132 % of control | 35 | 79 |
| O=C1CCC(n2cc(-c3cscc3Cl)nn2)C(=O)N1 (stereo not shown) [compound 14, 3-[4-(4-chlorothiophen-3-yl)-1H-1,2,3-triazol-1-yl]piperidine-2,6-dione] | 34 | 113 % of control | 75 | 43 |
| COc1c(-c2cn(C3CCC(=O)NC3=O)nn2)csc1C (stereo not shown) [compound 15, 3-[4-(4-methoxy-5-methylthiophen-3-yl)-1H-1,2,3-triazol-1-yl]piperidine-2,6-dione] | 36 | 105 % of control | 85 | 55 |
| COC(=O)c1scc(-c2cn(C3CCC(=O)NC3=O)nn2)c1OC (stereo not shown) [compound 16, methyl 4-[1-(2,6-dioxopiperidin-3-yl)-1H-1,2,3-triazol-4-yl]-3-methoxythiophene-2-carboxylate] | 85 | 90 % of control | 100 | 85 |
